Experimental data taken from patent publication US12063932B2, “Method of promoting plant growth effects” (Bayer CropScience Aktiengesellschaft, priority 2016, dated 2024).

Assays:
Format in all cases: in vivo
[1] = system: Soybean seeds of the variety Merlin; assay: Soybean seed treatment: plant height, fresh and dry weight of stem and roots after 19 days (Example A); conditions: for dry weight roots, % of untreated control / dry weight stem, % of untreated control / fresh weight roots, % of untreated control / fresh weight stem, % of untreated control: untreated control given as 100
Experimental: (§1) Soybean seeds of the variety Merlin were treated with 1.2, 0.6 and 0.3 g of compound (A) per 100 kg seeds. Compound (A) was provided as an aqueous solution with a concentration of 1000 ppm compound (A). The treated seeds were seeded into soil/quartz in five replicates at the same day. Germination was observed four days later. Plant height, fresh and dry weight of stem and roots were determined after 19 days.

[2] = system: Soybean seeds of the variety Merlin; assay: Soybean seed treatment: root volume after 19 days (Example B); conditions: untreated control 0.82
Experimental: as §1, with “Root volume was” for “Plant height, fresh and dry weight of stem and roots were”

[3] = system: Soybean seeds of the variety Merlin; assay: Soybean seed treatment: comparative photographs of seedlings after 19 days (Example C)
Experimental: FIGS. 1A-1H. Soybean seeds of the variety Merlin were untreated FIG. 1A (top view) and FIG. 1B (side view), or treated 1.2 g/100 kg/seeds of Compound (A) in FIG. 1C (top view) and FIG. 1D (side view); or treated with 0.6 g/100 kg seeds of Compound (A) in FIG. 1E (Lop view) and FIG. 1F (side view); or treated with 0.3 g/100 kg seeds of compound (A) in FIG. 1G (top view) and FIG. 1H (side view). Seedlings were evaluated after 19 days. Soybean seeds of the variety Merlin were treated with 1.2, 0.6 and 0.3 g of compound (A) per 100 kg seeds. Compound (A) was provided as an aqueous solution with a concentration of 1000 ppm compound (A). The treated seeds were seeded into soil/quartz in five replicates at the same day. Germination was observed four days later. Comparative photographs were taken after 19 days.

[4] = system: Roses of the variety Kordana Mixkar; assay: Rose foliar application: number of flowers by visual inspection (Example D); conditions: for No Flowers, Average (A to E): average of five replicates, untreated controls 9.4 and 10.2; for No Flowers, A: replicate A; for No Flowers, A / No Flowers, B / No Flowers, C / No Flowers, D / No Flowers, E: assessed 2016-06-14; for No Flowers, B: replicate B; for No Flowers, C: replicate C; for No Flowers, D: replicate D; for No Flowers, E: replicate E
Experimental: FIGS. 2A-2H. Rose plants of the variety Kordana Mixkar were treated in five replicates. Untreated control is shown in FIG. 2A (side view) and FIG. 2B (top view). Treatment at 1 ppm is shown in FIG. 2C (side view) and FIG. 2D (top view). Treatment at 80 ppm is shown in FIG. 2E (side view) and FIG. 2F (top view). Treatment at 420 ppm is showing in FIG. 2G (side view) and FIG. 2H (top view). Rose plants were evaluated for quantity and fullness of flowers.
Roses of the variety Kordana Mixkar were cultivated in 2 litre pots in soil in the greenhouse at 23 degree Celsius and 80% humidity. Compound (A) and Clopyralid as a comparison were applied as a foliar application on 2016-05-25 at application rates according to the following table 3 Ammonium sulfate and methylated soybean oil were used as penetration enhancing agents.
Rose plants were treated in five replicates. The number of flowers was assessed by visual inspection on 2016-06-14.

[5] = seed treatment 0.3 g/100 kg seeds
[6] = seed treatment 0.6 g/100 kg seeds
[7] = seed treatment 1.2 g/100 kg seeds
[8] = 0.3 g/100 kg seeds, photographs after 19 days (FIGS. 1G, 1H)
[9] = 0.6 g/100 kg seeds, photographs after 19 days (FIGS. 1E, 1F)

SMILES: O=C(O)c1ncc(C(F)(F)F)cc1Cl [Compound (A), 3-chloro-5-(trifluoromethyl)pyridine-2-carboxylic acid]
- Fresh weight plant [1, 5]: 2.62 g
- Plant height [% of untreated control] [1, 5]: 111 % of untreated control
- dry weight roots, % of untreated control [1, 5]: 105%
- dry weight stem, % of untreated control [1, 5]: 114%
- fresh weight roots, % of untreated control [1, 5]: 106%
- fresh weight stem, % of untreated control [1, 5]: 103%
- Fresh weight plant [1, 6]: 2.53 g
- Plant height [% of untreated control] [1, 6]: 103 % of untreated control
- dry weight roots, % of untreated control [1, 6]: 108%
- dry weight stem, % of untreated control [1, 6]: 107%
- fresh weight roots, % of untreated control [1, 6]: 107%
- fresh weight stem, % of untreated control [1, 6]: 100%
- Fresh weight plant [1, 7]: 2.24 g
- Plant height [% of untreated control] [1, 7]: 87 % of untreated control
- dry weight roots, % of untreated control [1, 7]: 68%
- dry weight stem, % of untreated control [1, 7]: 77%
- fresh weight roots, % of untreated control [1, 7]: 69%
- fresh weight stem, % of untreated control [1, 7]: 88%
- Root volume [cm^3] [2, 5]: 0.83 cm^3
- Root volume [cm^3] [2, 6]: 0.96 cm^3
- Root volume [cm^3] [2, 7]: 0.50 cm^3
- biomass of leaves in comparison to the untreated control [3, 8]: increased biomass of leaves
- growth of the seedlings in comparison to the untreated control [3, 8]: higher growth of the seedlings
- biomass of leaves in comparison to the untreated control [3, 9]: increased biomass of leaves
- growth of the seedlings in comparison to the untreated control [3, 9]: higher growth of the seedlings
- No Flowers, Average (A to E) ([4]; 1 ppm foliar): 9.6
- No Flowers, A ([4]; 1 ppm foliar): 8
- No Flowers, B ([4]; 1 ppm foliar): 7
- No Flowers, C ([4]; 1 ppm foliar): 11
- No Flowers, D ([4]; 1 ppm foliar): 10
- No Flowers, E ([4]; 1 ppm foliar): 12
- No Flowers, Average (A to E) ([4]; 10 ppm foliar): 10.2
- No Flowers, A ([4]; 10 ppm foliar): 11
- No Flowers, B ([4]; 10 ppm foliar): 10
- No Flowers, C ([4]; 10 ppm foliar): 10
- No Flowers, D ([4]; 10 ppm foliar): 10
- No Flowers, E ([4]; 10 ppm foliar): 10
- No Flowers, Average (A to E) ([4]; 20 ppm foliar): 10.6
- No Flowers, A ([4]; 20 ppm foliar): 11
- No Flowers, B ([4]; 20 ppm foliar): 10
- No Flowers, C ([4]; 20 ppm foliar): 12
- No Flowers, D ([4]; 20 ppm foliar): 10
- No Flowers, E ([4]; 20 ppm foliar): 10
- No Flowers, Average (A to E) ([4]; 40 ppm foliar): 11.2
- No Flowers, A ([4]; 40 ppm foliar): 11
- No Flowers, B ([4]; 40 ppm foliar): 8
- No Flowers, C ([4]; 40 ppm foliar): 13
- No Flowers, D ([4]; 40 ppm foliar): 12
- No Flowers, E ([4]; 40 ppm foliar): 12
- No Flowers, Average (A to E) ([4]; 80 ppm foliar): 11.4
- No Flowers, A ([4]; 80 ppm foliar): 12
- No Flowers, B ([4]; 80 ppm foliar): 13
- No Flowers, C ([4]; 80 ppm foliar): 11
- No Flowers, D ([4]; 80 ppm foliar): 11
- No Flowers, E ([4]; 80 ppm foliar): 10
- No Flowers, Average (A to E) ([4]; 170 ppm foliar): 8.8
- No Flowers, A ([4]; 170 ppm foliar): 8
- No Flowers, B ([4]; 170 ppm foliar): 10
- No Flowers, C ([4]; 170 ppm foliar): 10
- No Flowers, D ([4]; 170 ppm foliar): 5
- No Flowers, E ([4]; 170 ppm foliar): 11
- No Flowers, Average (A to E) ([4]; 250 ppm foliar): 5.4
- No Flowers, A ([4]; 250 ppm foliar): 3
- No Flowers, B ([4]; 250 ppm foliar): 9
- No Flowers, C ([4]; 250 ppm foliar): 3
- No Flowers, D ([4]; 250 ppm foliar): 4
- No Flowers, E ([4]; 250 ppm foliar): 8
- No Flowers, Average (A to E) ([4]; 420 ppm foliar): 5
- No Flowers, A ([4]; 420 ppm foliar): 8
- No Flowers, B ([4]; 420 ppm foliar): 7
- No Flowers, C ([4]; 420 ppm foliar): 3
- No Flowers, D ([4]; 420 ppm foliar): 4
- No Flowers, E ([4]; 420 ppm foliar): 3
- No Flowers, Average (A to E) ([4]; 850 ppm foliar): 5.2
- No Flowers, A ([4]; 850 ppm foliar): 2
- No Flowers, B ([4]; 850 ppm foliar): 3
- No Flowers, C ([4]; 850 ppm foliar): 10
- No Flowers, D ([4]; 850 ppm foliar): 5
- No Flowers, E ([4]; 850 ppm foliar): 6
- quantity and fullness of flowers versus untreated controls ([4]; foliar application, up to a concentration of 80 ppm, FIGS. 2C-2H): more and fuller flowers than the untreated controls
